# Laboratory results published in US20230053864A1, “Methods for Identifying Modulators of G Protein-Coupled Receptors” (University of Miami, priority 2019, published 2023).
# “Also recorded” adds a separate entry of the source.
# Assays:
# [1] = biological target: T1, GPR35 (Homo sapiens, UniProt Q9HC97); assay: dCyFIRscreen profiling and titrations in yeast GPCR-Gα reporter strains; assay type: cell-based
# T1 construct: expressed in transfected cells; host or cells: Saccharomyces cerevisiae BY4741-derived GPCR-Gα reporter strains, X-2 landing pad
# T1 sequence (Q9HC97 whole entry): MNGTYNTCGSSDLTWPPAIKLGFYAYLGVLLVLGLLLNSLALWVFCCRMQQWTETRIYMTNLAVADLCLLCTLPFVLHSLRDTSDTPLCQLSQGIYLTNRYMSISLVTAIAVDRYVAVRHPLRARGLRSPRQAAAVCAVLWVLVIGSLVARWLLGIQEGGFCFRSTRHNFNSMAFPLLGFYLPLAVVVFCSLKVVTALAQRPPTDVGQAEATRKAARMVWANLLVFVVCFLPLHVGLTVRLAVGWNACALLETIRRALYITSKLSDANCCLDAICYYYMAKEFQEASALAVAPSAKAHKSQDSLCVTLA
# Protocol: (§1) Individual Gα reporter strains were grown in SCD LoFo pH=7.0 at 30° C. to an OD=1.0 in a 2.0 mL 96-well DeepWell block (Greiner; 780271-FD). Cells were normalized to an OD of 0.1 in SCD LoFo pH=7.0 using a Biomek NXp liquid-handling robot. 10× ligand/vehicle stocks were prepared (see Table 2) and 4 μL were distributed to each well of a 384-well plate (Greiner; 781096) in quadruplicate using a Biomek NXp. 36 μL normalized cells were distributed to each well containing the appropriate 10× ligand/vehicle. Plates were sealed with a breathable cover (Diversified Biotech; BERM-2000) and incubated at 30° C. Fluorescence readings were collected after 18 hours using a plate reader (ClarioStar, BMG LabTech, Offenburg, Germany) (bottom read, 10 flashes/well, excitation filter: 430-10 nm, dichroic filter: LP 458 nm, emission filter: 482-16 nm, gain=1300 (1500 for FIG. 1B.)). Absorbance readings were also collected after 18 hours using the same instrument (22 flashes/well, excitation filter: 600 nm).
# (§2) All titration curves were analyzed using Prism software and the pharmacological fitting function log(agonist) vs. response—Variable slope (four parameters) (GraphPad Software, San Diego, USA).
# [2] = biological target: T2, LPAR1 (Homo sapiens, UniProt Q92633); assay: as above; assay type: cell-based
# T2 construct: expressed in transfected cells; host or cells: Saccharomyces cerevisiae BY4741-derived GPCR-Gα reporter strains, X-2 landing pad
# T2 sequence (Q92633 whole entry): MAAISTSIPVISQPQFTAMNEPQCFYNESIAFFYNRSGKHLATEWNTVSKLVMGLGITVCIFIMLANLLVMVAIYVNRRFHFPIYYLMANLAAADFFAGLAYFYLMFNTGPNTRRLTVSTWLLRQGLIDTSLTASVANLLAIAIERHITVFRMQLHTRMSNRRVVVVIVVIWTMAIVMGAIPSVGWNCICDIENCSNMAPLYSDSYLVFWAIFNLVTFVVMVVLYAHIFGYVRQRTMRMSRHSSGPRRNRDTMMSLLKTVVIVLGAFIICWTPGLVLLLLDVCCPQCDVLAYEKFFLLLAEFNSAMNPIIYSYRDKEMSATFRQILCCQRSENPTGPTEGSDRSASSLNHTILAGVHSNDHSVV
# Protocol: as §1, §2
# [3] = biological target: T3, GPR68 (Homo sapiens, UniProt Q15743); assay: as above; assay type: cell-based
# T3 construct: expressed in transfected cells; host or cells: Saccharomyces cerevisiae BY4741-derived GPCR-Gα reporter strains, X-2 landing pad
# T3 sequence (Q15743 whole entry): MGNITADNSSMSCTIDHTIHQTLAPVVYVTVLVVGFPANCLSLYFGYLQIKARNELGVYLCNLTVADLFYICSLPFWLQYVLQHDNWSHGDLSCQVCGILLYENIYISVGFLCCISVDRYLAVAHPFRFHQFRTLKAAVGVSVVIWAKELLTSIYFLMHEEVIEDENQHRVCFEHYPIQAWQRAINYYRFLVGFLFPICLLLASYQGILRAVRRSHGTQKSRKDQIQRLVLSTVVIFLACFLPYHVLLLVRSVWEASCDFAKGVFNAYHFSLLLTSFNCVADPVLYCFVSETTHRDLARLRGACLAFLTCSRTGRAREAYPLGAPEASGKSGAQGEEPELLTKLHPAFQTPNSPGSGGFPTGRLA
# Protocol: as §1, §2
# [4] = biological target: T4, ADORA2A (Homo sapiens, UniProt P29274); assay: as above; assay type: cell-based
# T4 construct: expressed in transfected cells; host or cells: Saccharomyces cerevisiae BY4741-derived GPCR-Gα reporter strains, X-2 landing pad
# T4 sequence (P29274 whole entry): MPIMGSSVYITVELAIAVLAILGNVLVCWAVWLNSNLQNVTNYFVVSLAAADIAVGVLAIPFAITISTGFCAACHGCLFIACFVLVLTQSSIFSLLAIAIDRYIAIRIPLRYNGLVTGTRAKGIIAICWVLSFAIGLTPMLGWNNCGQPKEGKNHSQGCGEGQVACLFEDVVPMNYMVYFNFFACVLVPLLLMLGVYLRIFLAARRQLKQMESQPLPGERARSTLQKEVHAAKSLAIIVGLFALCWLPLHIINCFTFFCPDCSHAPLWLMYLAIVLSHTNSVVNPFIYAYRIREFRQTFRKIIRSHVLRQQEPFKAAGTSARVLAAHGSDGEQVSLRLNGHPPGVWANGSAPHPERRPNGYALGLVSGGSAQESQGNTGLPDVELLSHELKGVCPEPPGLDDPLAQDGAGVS
# Protocol: as §1, §2
# [5] = biological target: T5, GPR4 (Homo sapiens, UniProt P46093); assay: dCyFIRscreen profiling in yeast GPCR-Gα reporter strains; assay type: cell-based
# T5 construct: expressed in transfected cells; host or cells: Saccharomyces cerevisiae BY4741-derived GPCR-Gα reporter strains, X-2 landing pad
# T5 sequence (P46093 whole entry): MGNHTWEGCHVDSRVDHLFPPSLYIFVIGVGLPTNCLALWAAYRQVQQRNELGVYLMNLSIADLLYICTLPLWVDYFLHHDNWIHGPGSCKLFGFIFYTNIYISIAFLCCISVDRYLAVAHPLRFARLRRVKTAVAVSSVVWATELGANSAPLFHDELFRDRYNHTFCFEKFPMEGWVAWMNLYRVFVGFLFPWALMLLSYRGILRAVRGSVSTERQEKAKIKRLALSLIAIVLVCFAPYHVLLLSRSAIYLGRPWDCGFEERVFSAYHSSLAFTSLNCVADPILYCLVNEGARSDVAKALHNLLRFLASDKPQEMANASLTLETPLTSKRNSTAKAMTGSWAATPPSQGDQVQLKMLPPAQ
# Protocol: as §1
# [6] = biological target: T6, HCAR2 (Homo sapiens, UniProt Q8TDS4); assay: as above; assay type: cell-based
# T6 construct: expressed in transfected cells; host or cells: Saccharomyces cerevisiae BY4741-derived GPCR-Gα reporter strains, X-2 landing pad
# T6 sequence (Q8TDS4 whole entry): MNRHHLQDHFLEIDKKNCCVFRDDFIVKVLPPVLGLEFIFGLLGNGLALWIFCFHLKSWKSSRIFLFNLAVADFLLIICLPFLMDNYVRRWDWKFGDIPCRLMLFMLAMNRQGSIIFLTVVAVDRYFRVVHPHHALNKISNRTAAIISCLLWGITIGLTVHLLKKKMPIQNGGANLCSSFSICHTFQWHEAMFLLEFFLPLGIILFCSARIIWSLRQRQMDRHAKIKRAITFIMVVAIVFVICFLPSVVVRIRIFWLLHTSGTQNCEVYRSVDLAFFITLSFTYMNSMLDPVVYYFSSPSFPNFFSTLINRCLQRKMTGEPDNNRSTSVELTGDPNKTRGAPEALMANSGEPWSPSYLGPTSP
# Protocol: as §1
# [7] = biological target: T7, LPAR4 (Homo sapiens, UniProt Q99677); assay: as above; assay type: cell-based
# T7 construct: expressed in transfected cells; host or cells: Saccharomyces cerevisiae BY4741-derived GPCR-Gα reporter strains, X-2 landing pad
# T7 sequence (Q99677 whole entry): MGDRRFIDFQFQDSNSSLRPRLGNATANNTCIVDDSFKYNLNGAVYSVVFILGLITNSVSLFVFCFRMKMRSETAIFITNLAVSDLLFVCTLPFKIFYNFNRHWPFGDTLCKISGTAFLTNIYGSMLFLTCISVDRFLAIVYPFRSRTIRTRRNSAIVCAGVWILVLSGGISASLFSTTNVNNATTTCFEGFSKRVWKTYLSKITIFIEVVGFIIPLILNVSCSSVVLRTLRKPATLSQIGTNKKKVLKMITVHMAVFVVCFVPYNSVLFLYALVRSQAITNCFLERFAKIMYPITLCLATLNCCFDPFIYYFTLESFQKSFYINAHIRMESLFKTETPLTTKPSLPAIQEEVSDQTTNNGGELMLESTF
# Protocol: as §1
# [8] = biological target: HCAR3 (Homo sapiens, UniProt P49019); assay: dCyFIRscreen profiling and titrations in yeast GPCR-Gα reporter strains; assay type: cell-based; design: expressed in transfected cells
# HCAR3, sequence (P49019 whole entry): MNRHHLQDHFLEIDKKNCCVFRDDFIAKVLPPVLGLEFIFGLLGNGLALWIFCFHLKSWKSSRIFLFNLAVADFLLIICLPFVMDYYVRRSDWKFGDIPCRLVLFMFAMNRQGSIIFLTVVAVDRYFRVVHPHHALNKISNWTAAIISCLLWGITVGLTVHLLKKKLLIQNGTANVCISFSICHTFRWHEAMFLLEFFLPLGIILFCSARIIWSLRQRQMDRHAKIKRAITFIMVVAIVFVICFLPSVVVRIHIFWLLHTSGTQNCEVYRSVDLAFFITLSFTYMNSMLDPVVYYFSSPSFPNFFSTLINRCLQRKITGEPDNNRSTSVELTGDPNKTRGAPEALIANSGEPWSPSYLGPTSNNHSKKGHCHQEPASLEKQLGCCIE
# Protocol: as §1, §2
# [9] = biological target: T8, MTNR1A (Homo sapiens, UniProt P48039); assay: as above; assay type: cell-based
# T8 construct: expressed in transfected cells; host or cells: Saccharomyces cerevisiae BY4741-derived GPCR-Gα reporter strains, X-2 landing pad
# T8 sequence (P48039 whole entry): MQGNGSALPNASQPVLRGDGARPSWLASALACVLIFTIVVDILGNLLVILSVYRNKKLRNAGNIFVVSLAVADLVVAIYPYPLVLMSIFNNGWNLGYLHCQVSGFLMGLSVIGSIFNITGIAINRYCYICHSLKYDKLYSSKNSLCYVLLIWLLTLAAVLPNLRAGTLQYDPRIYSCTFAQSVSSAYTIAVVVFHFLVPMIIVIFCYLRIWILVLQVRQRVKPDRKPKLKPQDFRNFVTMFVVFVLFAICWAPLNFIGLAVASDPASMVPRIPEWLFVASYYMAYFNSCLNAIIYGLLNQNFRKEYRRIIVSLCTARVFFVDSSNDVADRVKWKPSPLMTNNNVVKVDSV
# Protocol: as §1, §2
# [10] = biological target: T9, ADRA2B (Homo sapiens, UniProt P18089); assay: as above; assay type: cell-based
# T9 construct: expressed in transfected cells; host or cells: Saccharomyces cerevisiae BY4741-derived GPCR-Gα reporter strains, X-2 landing pad
# T9 sequence (P18089 1-450): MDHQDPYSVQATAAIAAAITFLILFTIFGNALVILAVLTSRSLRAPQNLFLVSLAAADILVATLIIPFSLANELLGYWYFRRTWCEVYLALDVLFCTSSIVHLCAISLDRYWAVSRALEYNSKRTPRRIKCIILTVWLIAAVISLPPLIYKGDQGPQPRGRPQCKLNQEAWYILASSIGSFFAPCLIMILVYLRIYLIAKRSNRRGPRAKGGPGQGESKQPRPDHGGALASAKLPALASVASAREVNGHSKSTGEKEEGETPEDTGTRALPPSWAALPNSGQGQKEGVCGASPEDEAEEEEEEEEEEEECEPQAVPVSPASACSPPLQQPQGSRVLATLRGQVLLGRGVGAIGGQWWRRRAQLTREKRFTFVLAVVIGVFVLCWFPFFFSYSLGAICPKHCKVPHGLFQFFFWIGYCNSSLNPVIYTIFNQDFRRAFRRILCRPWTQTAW
# Protocol: dCyFIRscreen protocol. […] Cells were normalized to an OD of 0.1 in SCD LoFo pH=7.0 using a Biomek NXp liquid-handling robot. […] 36 μL normalized cells were distributed to each well containing the appropriate 10× ligand/vehicle. Plates were sealed with a breathable cover (Diversified Biotech; BERM-2000) and incubated at 30° C. […] Absorbance readings were also collected after 18 hours using the same instrument (22 flashes/well, excitation filter: 600 nm).
# Titration Analyses. All titration curves were analyzed using Prism software and the pharmacological fitting function log(agonist) vs. response—Variable slope (four parameters) (GraphPad Software, San Diego, USA).
# [11] = biological target: T10, HTR4 (Homo sapiens, UniProt Q13639); assay: as above; assay type: cell-based
# T10 construct: expressed in transfected cells; host or cells: Saccharomyces cerevisiae BY4741-derived GPCR-Gα reporter strains, X-2 landing pad
# T10 sequence (Q13639 whole entry): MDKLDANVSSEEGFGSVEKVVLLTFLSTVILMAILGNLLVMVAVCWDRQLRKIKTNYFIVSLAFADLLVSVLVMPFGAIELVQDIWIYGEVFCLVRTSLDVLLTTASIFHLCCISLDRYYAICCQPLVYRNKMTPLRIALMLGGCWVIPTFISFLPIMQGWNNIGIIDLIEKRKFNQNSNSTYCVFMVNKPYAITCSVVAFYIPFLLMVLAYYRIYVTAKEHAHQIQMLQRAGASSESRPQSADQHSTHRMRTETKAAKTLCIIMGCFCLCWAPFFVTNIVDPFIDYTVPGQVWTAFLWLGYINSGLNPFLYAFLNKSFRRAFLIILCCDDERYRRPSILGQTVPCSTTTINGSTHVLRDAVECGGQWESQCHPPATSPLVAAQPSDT
# Protocol: (§3) dCyFIRscreen protocol. Individual Gα reporter strains were grown in SCD LoFo pH=7.0 at 30° C. to an OD=1.0 in a 2.0 mL 96-well DeepWell block (Greiner; 780271-FD). Cells were normalized to an OD of 0.1 in SCD LoFo pH=7.0 using a Biomek NXp liquid-handling robot. 10× ligand/vehicle stocks were prepared (see Table 2) and 4 μL were distributed to each well of a 384-well plate (Greiner; 781096) in quadruplicate using a Biomek NXp. 36 μL normalized cells were distributed to each well containing the appropriate 10× ligand/vehicle. Plates were sealed with a breathable cover (Diversified Biotech; BERM-2000) and incubated at 30° C. Fluorescence readings were collected after 18 hours using a plate reader (ClarioStar, BMG LabTech, Offenburg, Germany) (bottom read, 10 flashes/well, excitation filter: 430-10 nm, dichroic filter: LP 458 nm, emission filter: 482-16 nm, gain=1300 (1500 for FIG. 1B.)). Absorbance readings were also collected after 18 hours using the same instrument (22 flashes/well, excitation filter: 600 nm).
# as §2
# [12] = biological target: T11, MTNR1B (Homo sapiens, UniProt P49286); assay: dCyFIRscreen profiling in yeast GPCR-Gα reporter strains; assay type: cell-based
# T11 construct: expressed in transfected cells; host or cells: Saccharomyces cerevisiae BY4741-derived GPCR-Gα reporter strains, X-2 landing pad
# T11 sequence (P49286 1-362): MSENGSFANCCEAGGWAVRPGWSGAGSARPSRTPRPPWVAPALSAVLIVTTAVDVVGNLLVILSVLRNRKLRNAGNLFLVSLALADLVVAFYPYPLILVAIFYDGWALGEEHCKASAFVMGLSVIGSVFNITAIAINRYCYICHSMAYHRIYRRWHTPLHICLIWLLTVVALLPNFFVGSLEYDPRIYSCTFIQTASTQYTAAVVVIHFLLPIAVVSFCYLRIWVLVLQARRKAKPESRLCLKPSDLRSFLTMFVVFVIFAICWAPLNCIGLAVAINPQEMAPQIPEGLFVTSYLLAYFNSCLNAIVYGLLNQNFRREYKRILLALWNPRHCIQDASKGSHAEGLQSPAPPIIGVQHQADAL
# Protocol: as §1, §2
# [13] = tested on: 300-plex of GPCR-Gα reporter strains; assay: dCyFIRplex FACS sorting of agonist-treated 300-plex; assay type: cell-based, Saccharomyces cerevisiae; conditions: following agonist treatment
# Protocol: dCyFIRplex protocol. […] 10× ligand/vehicle stocks were added to individual wells of a DeepWell block. The consolidated 300-plex or control strains were then added to each well and grown in the presence of ligand/vehicle overnight, so that each culture would reach an OD=4.0 before dCyFIRplex profiling. Samples were washed with sterile ddH2O and normalized to an OD=2.0 in SCD LoFo pH=7.0. Tracer cells were added to each sample at a 1:301 ratio. The final mixture was then transferred into a glass sample tube (USA Scientific; 1450-2810) and used for cell sorting. A BD FACSAria-II cell sorter was used for all dCyFIRplex experiments to assess mTq2 (405 nm excitation, 450/50 nm emission) and mRuby3 fluorescence (535 nm excitation, 610/20 nm emission). A gating strategy was set using the three control samples (DI P1 mTq2, individual Gα reporter strains lacking an integrated receptor, and DI P1 mRuby3) such that tracer cells and any cell expressing mTq2 was sorted into a 14 mL collection tube (USA Scientific; 1485-2810) containing 500 μL YPD. Samples treated with water or 500 μM adenosine (well-characterized using dCyFIRscreen, inexpensive, and water-soluble) were used to build a standard curve measuring total events in the mRuby3 and mTq2 positive gates. The standard curve from a water-treated 300-plex was used to determine the number of tracer events that would correspond to 15,000 events in the mTq2 gate for a water-treated 300-plex. Each sample was sorted until the standardized tracer count was reached. Sorted cells were enriched by outgrowth in 5 mL YPD at 30° C. with shaking (200 rpm) for 18 hours. Cells were harvested by centrifugation at 3,000×g for 5 min, and resuspended in 1 mL ddH2O. Cells were either processed immediately for qPCR deconvolution or frozen in 100 μL aliquots for storage at −20° C. The set of samples comparatively deconvoluted by qPCR and NanoString methods were derived from aliquots of the same dCyFIRplex experiments. […]
# [14] = biological target: T12, GPR65 (Homo sapiens, UniProt Q8IYL9); assay: dCyFIRscreen profiling and titrations in yeast GPCR-Gα reporter strains; assay type: cell-based
# T12 construct: expressed in transfected cells; host or cells: Saccharomyces cerevisiae BY4741-derived GPCR-Gα reporter strains, X-2 landing pad
# T12 sequence (Q8IYL9 whole entry): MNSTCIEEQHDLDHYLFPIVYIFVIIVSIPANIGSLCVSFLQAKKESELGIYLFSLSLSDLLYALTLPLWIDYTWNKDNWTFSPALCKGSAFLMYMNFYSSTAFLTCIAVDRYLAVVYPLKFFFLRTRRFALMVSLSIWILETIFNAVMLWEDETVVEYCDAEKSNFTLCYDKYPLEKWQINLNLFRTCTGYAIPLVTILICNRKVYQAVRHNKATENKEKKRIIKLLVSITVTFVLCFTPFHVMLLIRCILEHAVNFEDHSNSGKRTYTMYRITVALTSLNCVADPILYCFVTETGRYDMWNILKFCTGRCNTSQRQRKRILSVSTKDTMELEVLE
# Protocol: as §1, §2
# [15] = biological target: T13, CNR2 (Homo sapiens, UniProt P34972); assay: dCyFIRscreen profiling in yeast GPCR-Gα reporter strains; assay type: cell-based
# T13 construct: expressed in transfected cells; host or cells: Saccharomyces cerevisiae BY4741-derived GPCR-Gα reporter strains, X-2 landing pad
# Protocol: as §1
# [16] = tested on: 20 GPCRs (200 GPCR-Gα strains); assay: control dCyFIRscreen profiles against 20 GPCRs (200 GPCR-Gα strains); assay type: cell-based, human; conditions: 20 GPCRs incl. all 15 constitutively active receptors
# Protocol: as §3
# [17] = biological target: T14, S1PR2 (Homo sapiens, UniProt O95136); assay: dCyFIRscreen profiling and titrations in yeast GPCR-Gα reporter strains; assay type: cell-based
# T14 construct: expressed in transfected cells; host or cells: Saccharomyces cerevisiae BY4741-derived GPCR-Gα reporter strains, X-2 landing pad
# T14 sequence (O95136 whole entry): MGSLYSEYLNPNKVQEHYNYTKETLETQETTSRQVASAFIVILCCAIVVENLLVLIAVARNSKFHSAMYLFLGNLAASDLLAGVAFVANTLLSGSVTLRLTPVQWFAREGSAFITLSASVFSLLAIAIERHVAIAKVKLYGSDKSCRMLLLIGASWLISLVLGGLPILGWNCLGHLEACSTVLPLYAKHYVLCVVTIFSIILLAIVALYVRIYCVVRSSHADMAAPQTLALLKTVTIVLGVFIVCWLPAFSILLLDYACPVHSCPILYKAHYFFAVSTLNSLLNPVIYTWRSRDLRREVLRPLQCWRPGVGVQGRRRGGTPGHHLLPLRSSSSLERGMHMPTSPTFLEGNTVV
# Protocol: as §1, §2
# [18] = biological target: T15, S1PR1 (Homo sapiens, UniProt P21453); assay: as above; assay type: cell-based
# T15 construct: expressed in transfected cells; host or cells: Saccharomyces cerevisiae BY4741-derived GPCR-Gα reporter strains, X-2 landing pad
# T15 sequence (P21453 whole entry): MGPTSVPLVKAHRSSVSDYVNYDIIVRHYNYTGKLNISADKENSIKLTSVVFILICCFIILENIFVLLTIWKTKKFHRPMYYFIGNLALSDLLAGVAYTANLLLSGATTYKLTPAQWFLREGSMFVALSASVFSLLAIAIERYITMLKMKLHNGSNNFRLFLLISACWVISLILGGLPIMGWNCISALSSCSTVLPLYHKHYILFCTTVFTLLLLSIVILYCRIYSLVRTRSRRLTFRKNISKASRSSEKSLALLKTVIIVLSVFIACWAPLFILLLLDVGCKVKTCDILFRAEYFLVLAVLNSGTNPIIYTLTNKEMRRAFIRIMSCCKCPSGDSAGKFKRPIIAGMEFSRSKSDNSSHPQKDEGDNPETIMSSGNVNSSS
# Protocol: as §1, §2
molecule,measurement,setting,value
"C[C@]12CC[C@H](O)CC1=CC[C@@H]1[C@@H]2CC[C@]2(C)C(=O)CC[C@@H]12 [DHEA, dehydroepiandrosterone]","activity at GPR35 in words (mode of action, potency range)",[1],increase receptor signaling; also recorded: PAM-agonist
same,activity at LPAR1 in words (mode of action),[2],increase receptor signaling
same,activity at GPR68 in words (mode of action),[3],increase receptor signaling and PAMs
same,activity at ADORA2A in words (mode of action),[4],increase receptor signaling
same,activity at GPR4 in words (mode of action),[5],increase receptor signaling and PAMs
same,activity at HCAR2 in words (mode of action),[6],increase receptor signaling
same,activity at LPAR4 in words (mode of action),[7],increase receptor signaling
same,"activity at HCAR3 in words (mode of action, potency range)",[8],increase receptor signaling and PAM-agonist and PAMs
NCCc1c[nH]c2ccccc12 [tryptamine],"activity at MTNR1A in words (mode of action, potency range)",[9],did not activate
same,"activity at ADRA2B in words (mode of action, potency range)",[10],did activate
same,EC50 at ADRA2B (in words),[10]; titration,micromolar range
same,activity at HTR4 in words (mode of action),[11],did activate
same,EC50 at HTR4 (in words),[11]; titration,micromolar range
same,activity at MTNR1B in words (mode of action),[12],did not activate
NCCc1c[nH]c2ccc(O)cc12 [serotonin],"activity at MTNR1A in words (mode of action, potency range)",[9],micromolar interactions
same,EC50,"[9]; titration, yeast GPCR-Gα reporter strain",60 µM
same,"activity at ADRA2B in words (mode of action, potency range)",[10],micromolar interactions
same,activity at MTNR1B in words (mode of action),[12],not find that serotonin agonized
C[C@]12CC[C@@H](O)C[C@@H]1CC[C@@H]1[C@@H]2CC[C@]2(C)C(=O)CC[C@@H]12 [androsterone],"activity at GPR35 in words (mode of action, potency range)",[1],increase receptor signaling
same,activity at LPAR1 in words (mode of action),[2],increase receptor signaling
same,activity at GPR68 in words (mode of action),[3],increase receptor signaling and PAMs
same,activity at ADORA2A in words (mode of action),[4],increase receptor signaling
same,activity at GPR4 in words (mode of action),[5],increase receptor signaling and PAMs
same,activity at HCAR2 in words (mode of action),[6],increase receptor signaling
same,activity at LPAR4 in words (mode of action),[7],increase receptor signaling
same,"activity at HCAR3 in words (mode of action, potency range)",[8],increase receptor signaling and PAMs
CCCCCCCCCCCCC/C=C/[C@@H](O)[C@@H](N)COP(=O)(O)O [sphingosine-1-phosphate],"active cell pool, fraction of cell-sorting events for the 300-plex",[13],1.8%
O[C@H]1[C@H](O)[C@@H](O)[C@H](O)[C@@H](O)[C@H]1O [inositol],"activity at GPR35 in words (mode of action, potency range)",[1],increase receptor signaling; also recorded: PAM-agonist
same,activity at GPR65 in words (mode of action),[14],increase receptor signaling and PAM-agonist and PAMs
same,activity at GPR68 in words (mode of action),[3],increase receptor signaling and PAM-agonist and PAMs
same,activity at ADORA2A in words (mode of action),[4],increase receptor signaling; also recorded: NAM-agonist
same,activity at CNR2 in words (mode of action),[15],increase receptor signaling
C[C@]12CC[C@H](OS(=O)(=O)O)CC1=CC[C@@H]1[C@@H]2CC[C@]2(C)C(=O)CC[C@@H]12 [DHEA-S],response in control dCyFIRscreen profiles,[16],Neither of these ligands elicited responses
lysophosphatidic acid [LPA],"activity at S1PR2 in words (mode of action, potency range)",[17],micromolar interactions; also recorded: higher EC50 values compared to LPAR1
same,"activity at S1PR1 in words (mode of action, potency range)",[18],higher EC50 values compared to LPAR1
NCCc1ccc(O)c(O)c1 [dopamine],"activity at ADRA2B in words (mode of action, potency range)",[10],micromolar agonist
